From publication PMC8558867, “Development of BromoTag: A “Bump-and-Hole”–PROTAC System to Induce Potent, Rapid, and Selective Degradation of Tagged Target Proteins” (Journal of Medicinal Chemistry, 2021) come the findings set out here.

One series concerns the target T1, VHL with Brd4^BD2 L387A (Homo sapiens, UniProt O60885+P40337, L387A).
T1 construct: N-terminally His6-tagged VHL (54–213); His6 (N, cleaved yes); made in house; host or cells: E. coli
Description: FP competitive binding assay, ternary complex binding (compound preincubated with Brd4^BD2 L387A).

Series [1] has as its system proteome of heterozygous BromoTag-Brd2 HEK293 cells. Nature of the series: Multiplexed TMT labeling mass spectrometry proteomics. The class given is cell-based, human. Conditions: 1 μM, 2 h. Here is the method: To do this, we subjected our heterozygous BromoTag-Brd2 HEK293 cell line to a 1 μM treatment of 46, its non-degrading control 52, or vehicle (DMSO) for 2 h prior to harvest. The harvested lysate was then subjected to multiplexed tandem mass tag (TMT) labeling mass spectrometry to enable quantitative and unbiased analysis of protein levels in each condition.
CRISPR-modified BromoTag-Brd2 HEK293 cells (5 × 10^6) were seeded on a […] 24 h before treatment. The cells were treated with either DMSO, 1 μM AGB1, or 1 μM cis-AGB1. After 2 h of treatment, the cells were washed twice with PBS. The cells were lysed in 150 μL of 100 mM TEAB and 5% (w/v) sodium dodecyl sulfate. The lysate was sonicated for 10 s and then centrifuged at 15,000g for 5 min with the supernatant collected post-centrifugation. The samples were then quantified using a micro-BCA protein assay kit (Thermo Fisher Scientific); 300 μg of each sample was then reduced, alkylated, and then digested using the Strap mini protocol (protifi) as described by the manufacturer (protifi) with some modification. The samples were double-digested with trypsin (1:40) first overnight and then for another 6 h with the same ratio (1:40) in 50 mM TEAB buffer. The peptides were quantified using a quantitative fluorometric peptide assay (Thermo Fisher Scientific). […]

The nature of the next series: Plasma stability. The class given is in vitro ADME. Conditions: mouse plasma, 37 °C, over 1 h. The protocol:
Plasma stability studies were outsourced and undertaken by Shanghai ChemPartner Co., Ltd. Buffer preparation: a solution of 0.05 M sodium phosphate and 0.07 M NaCl buffer at pH 7.4 was made by dissolving 14.505 g/L of Na2HPO4·12H2O, 1.483 g/L of NaH2PO4·2H2O, and 4.095 g/L of NaCl in deionized water, and the pH was adjusted with phosphoric acid. Plasma preparation: frozen mouse plasma was thawed by placing at 37 °C quickly. The thawed plasma was centrifuged at 3000 rpm for 8 min to remove clots, and the supernatant was pooled to be used as the plasma in the experiment. The plasma (pH 7.4–8.0) was stored on ice until used. […] Plasma and spiking solutions were prewarmed at 37 °C for 5 min, and then 10 μL of prewarmed spiking solution B was added into the wells designated for all the time points (5, 15, 30, 45, and 60 min). For 0 min, 400 μL of acetonitrile-containing internal standards (imipramine, glipizide) was added to the wells of a 0 min plate, and then 90 μL of plasma was added. For the time points (0, 5, 15, 30, 45, and 60 min), 90 μL of prewarmed plasma was added at the initial stage. At 5, 15, 30, 45, and 60 min, 400 μL of acetonitrile containing the internal standard (imipramine, glipizide) was added to the wells of the corresponding plates to stop the reaction. […] Data was analyzed with Microsoft Excel.

Consider `CC[C@@H](C(=O)OCCOCCOCCOCC(=O)N[C@H](C(=O)N1C[C@H](O)C[C@H]1C(=O)NCc1ccc(-c2scnc2C)cc1)C(C)(C)C)[C@@H]1N=C(c2ccc(Cl)cc2)c2c(sc(C)c2C)-n2c(C)nnc21` [AGB1 (46), (S)-13-((2S,4R)-4-Hydroxy-2-((4-(4-methylthiazol-5-yl)benzyl)carbamoyl)pyrrolidine-1-carbonyl)-14,14-dimethyl-11-oxo-3,6,9-trioxa-12-azapentadecyl (R)-2-((S)-4-(4-chlorophenyl)-2,3,9-trimethyl-6H-thieno[3,2-f][1,2,4]triazolo[4,3-a][1,4]diazepin-6-yl)butanoate], for which the “α (FP binding)” value at VHL with Brd4^BD2 L387A (cooperativity, Kd binary/Kd ternary, supplementary CSV) is on record as 11.1. Also, the Kd – broadly, the free concentration of one partner at which half of the binding sites on the other are occupied at equilibrium, for simple one-to-one binding – on VHL with Brd4^BD2 L387A (preincubated with Brd4^BD2 L387A, mean ±S.E.M., N = 4, read-out: ternary binding affinity Kd) came out at 11 nM. The “cooperativity (α)” value at VHL with Brd4^BD2 L387A (α = Kd binary/Kd ternary) was found to be 11.1. In series [1], the “proteins significantly degraded among the 6621 proteins quantified” value was “only Brd2 was shown to be significantly degraded”. Also, the “plasma stability: levels remaining” value in “Plasma stability” is given as “no significant changes”.
